Measured values reported in patent publication US12662521B2, “Engineered osteocalcins for treating sarcopenia” (The Trustees of Columbia University in the City of New York, priority 2020, dated 2026).
“Also recorded” adds a separate entry of the source. Read-outs that look alike come from different tables or passages of the source.

What was measured:
[1] = Table 1, drugs developed to target muscle mass; cited from earlier work
[2] = tested on: dexamethasone-treated mice; settings: for running capacity / exercise / Muscle mass: dexamethasone-treated mice; for Muscle mass: oxidative, glycolytic and mixed muscles
From the text: It was also further examined whether an osteocalcin treatment might preserve muscle function and/or muscle mass in a clinically relevant mouse model of sarcopenia.
FIG. 9A and FIG. 9B show exemplary graphs pf exemplary modeling sarcopenia in mice.

Liver Factor 1 = Liver Factor 1 production during exercise; assay type: in vivo; settings: FIG. 7
From the text: OCN signaling in the liver is required for exercise capacity (see FIG. 6). OCN enhances Liver Factor 1 production during exercise (see FIG. 7). Liver Factor 1 mediates OCN regulation of exercise capacity (see FIG. 8).

young and older mice [3] = settings: exogenous osteocalcin, data of WO 2016/081728, cited from earlier work
young and older mice [4] = assay: exercise capacity of young and older mice given exogenous osteocalcin; assay type: in vivo; settings: FIG. 1
From the text: Exemplary data showing that osteocalcin signaling in myofibers favors adaptation to exercise because it increases uptake and utilization of glucose into the tricarboxylic acid cycle and promotes fatty acids utilization are included in International Patent Application Publication WO 2016/081728, the disclosure of which is incorporated herein by reference. Osteocalcin signaling in myofibers is also the main determinant of the exercise-induced upregulation of Interleukin-6, a myokine that favors the generation of bioactive osteocalcin and of nutrients made available for myofibers. Furthermore, circulating osteocalcin levels decline steeply before mid-life and increase less during exercise in older than in younger mice. […] Thus, there is an osteocalcin-interleukin-6 axis that can be necessary to enhance muscle function during exercise and can be harnessed to reverse age-induced decline in exercise capacity.
Exemplary data showing that, by signaling in myofibers, osteocalcin favors adaptation to exercise because it promotes glucose uptake and utilization in the tricarboxylic acid (TCA) cycle as well as utilization of FAs are also included in International Patent Application Publication WO 2016/081728, the disclosure of which is incorporated herein by reference. […]

[5] = tested on: mice that received dexamethasone; assay: deleterious effect of dexamethasone on muscle function, osteocalcin given concomitantly or after two weeks of dexamethasone; assay type: in vivo
Dexamethasone mice = assay: another recognized model of sarcopenia: dexamethasone delivered by pumps for 28 days, muscle mass and treadmill running; assay type: in vivo; parameters: dose or concentration left out as unconfirmed; settings: dexamethasone by pumps for 28 days; osteocalcin also by pumps

Molecule: CN(C)N(C)C(=O)[C@@]1(Cc2ccccc2)CCCN(C(=O)[C@@H](Cc2c[nH]c3ccccc23)NC(=O)C(C)(C)N)C1 [Anamorelin, reference compound]
- Muscle mass [1]: ✓

Molecule: C[C@](O)(COc1ccc(C#N)cc1)C(=O)Nc1ccc(C#N)c(C(F)(F)F)c1 [Enbosarm, reference compound]
- Muscle mass [1]: ✓

Molecule: C[C@H](Nc1ccc(C#N)c(Cl)c1Cl)C(C)(C)O [GSK2849466, reference compound]
- Muscle mass [1]: ✓

Molecule: N#Cc1ccc(N2CCC[C@@H]2[C@@H](O)C(F)(F)F)cc1C(F)(F)F [VK5211, reference compound]
- Muscle mass [1]: ✓
- running capacity / exercise [2]: only had a modest effect
- Muscle mass [2]: fully restored muscle mass to normal levels

Molecule: C[C@@H]1C[C@H]2[C@@H]3CCC4=CC(=O)C=C[C@]4(C)[C@@]3(F)[C@@H](O)C[C@]2(C)[C@@]1(O)C(=O)CO [dexamethasone, reference compound]
- decrease of circulating lymphocyte counts ([2]; after dexamethasone treatment): 50%
- diminution of gastrocnemius muscle mass ([2]; mouse, in vivo): 30%
- reduction of running capacity ([2]; mouse, in vivo): 50%

Molecule: osteocalcin (YLGASVPSPDPLEPTREQCELNPACDELSDQYGLKTAYKRIYGITI; UniProt P86546 50-95, looked up)
- Liver Factor 1 production during exercise (Liver Factor 1): enhances
- exercise capacity of older mice (young and older mice [3]; 12 to 15 month-old mice): confers to 15 months-old mice exercise capacity of 3 month-old mice; also recorded: confers to 12 to 15 month-old mice the exercise capacity of 3 month-old mice
- exercise capacity of young mice (young and older mice [3]): increases the exercise capacity
- age-related decline in exercise (young and older mice [4]): corrects
- deleterious effect of dexamethasone on muscle function ([5]; concomitant treatment with osteocalcin, 1 year-old mice): presented
- deleterious effect of dexamethasone on muscle function ([5]; osteocalcin administered in mice that had already received dexamethasone for two weeks): partially revert
- Muscle mass (Dexamethasone mice): lost significantly less muscle mass
- exercise capacity (ability to run on a treadmill) (Dexamethasone mice): normal exercise capacity
- safety / negative side-effects (animal models): safe with no recorded negative side-effects
- performance compared with VK5211 ([2]; Dex-induced sarcopenia): outperforms
- IL-6 in Dex-induced sarcopenia ([2]; FIG. 12): favors IL-6
- running capacity / exercise [2]: fully rescued the running capacity
- Muscle mass ([2]; listed as OCN): marginal effect
- DEX toxicity ([2]; mouse, in vivo): does not interfere
- dexamethasone-induced immune suppression (circulating lymphocyte counts) ([2]; mouse, in vivo): did not interfere with nor did it exacerbate
- off-target effects ([2]; mouse, in vivo): no overt off-target effects

B1: REGN1033: Myostatin inhibitor, Regeneron (antibody, chains of the INN, looked up, V domains shown)
VH: EVQVLESGGDLVQPGGSLRLSCAASGFTFSAYAMTWVRQAPGKGLEWVSAISGSGGSAYYADSVKGRFTISRDNSKNTVYLQMNSLRAEDTAVYYCAKDGAWKMSGLDVWGQGTTVIVSS
VL: DIQMTQSPASLSASVGDRVTITCRASQDISDYLAWYQQKPGKIPRLLIYTTSTLQSGVPSRFRGSGSGTDFTLTISSLQPEDVATYYCQKYDSAPLTFGGGTKVEIK
- Muscle mass [1]: ✓

B2: BYM338: Myostatin inhibitor, Novartis (antibody, chains of the INN, looked up, V domains shown)
VH: QVQLVQSGAEVKKPGASVKVSCKASGYTFTSSYINWVRQAPGQGLEWMGTINPVSGSTSYAQKFQGRVTMTRDTSISTAYMELSRLRSDDTAVYYCARGGWFDYWGQGTLVTVSS
VL: QSALTQPASVSGSPGQSITISCTGTSSDVGSYNYVNWYQQHPGKAPKLMIYGVSKRPSGVSNRFSGSKSGNTASLTISGLQAEDEADYYCGTFAGGSYYGVFGGGTKLTVL
- Muscle mass [1]: ✓

B3: PF-06252616: Myostatin inhibitor, Pfizer (antibody, chains of the INN, looked up, V domains shown)
VH: EVQLLESGGGLVQPGGSLRLSCAASGFTFSSYAMSWVRQAPGKGLEWVSTISSGGSYTSYPDSVKGRFTISRDNSKNTLYLQMNSLRAEDTAVYYCAKQDYAMNYWGQGTLVTVSS
VL: DIQMTQSPSSLSASVGDRVTITCKASQDVSTAVAWYQQKPGKAPKLLIYSASYRYTGVPSRFSGSGSGTDFTLTISSLQPEDFATYYCQQHYSTPWTFGGGTKVEIK
- Muscle mass [1]: ✓

B4: LY2495655: Myostatin inhibitor, Eli Lilly (antibody, chains of the INN, looked up, V domains shown)
VH: EVQLVESGGGLVQPGGSLRLSCAASGLTFSRYPMSWVRQAPGKGLVWVSAITSSGGSTYYSDTVKGRFTISRDNAKNTLYLQMNSLRAEDTAVYYCARLPDYWGQGTLVTVSS
VL: EIVLTQSPGTLSLSPGERATLSCRASSSVSSSYLHWYQQKPGQAPRLLIYSTSNLVAGIPDRFSGSGSGTDFTLTISRLEPEDFAVYYCQHHSGYHFTFGGGTKVEIK
- Muscle mass [1]: ✓
